# US20220000875A1, “TOPICAL COMPOSITIONS COMPRISING PENTOXIFYLLINE AND METHODS OF TREATMENT USING THE SAME” (priority 2018, published 2022)
# Assays:
# [1] = tested on: oral ulcers of BD patients; assay: Randomized, open-label, proof-of-concept clinical study of topical PTX muco-adherent gel: oral ulcer healing, ulcer number, pain; assay type: in vivo, human
# Protocol: (§1) A randomized, open-label, proof-of-concept clinical study was conducted under an FDA Investigational New Drug Application (IND). […] The CLC was administered orally as a pill and dosed as determined by the subject's physician. No less than every 48 hours, subjects' ulcers were photographed and examined using digital image processing to determine ulcer area, over a period of 14 days, which include daily collection of adverse events, ulcer number, and pain scores.
# (§2) Inclusion criteria required the recent (<2 days) appearance of a new oral ulcer. Patients on immunosuppressant therapies were excluded from the study.
# Patients were contacted daily for 14 consecutive days and were examined in-person no less than every 48 hours except for weekends. On the first day of entry into the study, the largest ulcer was identified and photographed as the “index ulcer”; its location was recorded and it was subsequently photographed at every in-person visit. Photographs were made with a paper ruler showing millimeter graduations lain in the same plane as the ulcer itself. Graphical processing software was used to compute the ulcer area in square millimeters; this software was calibrated from the paper ruler image and required drawing a line around the image of the ulcer margin.
# Then, the proportion of patients with undetectable index ulcer (defined as those with an ulcer area of less than 1 mm^2) at day 4 was compared. Lastly, the trend in mean ulcer area over 14 days was compared as well as the results' sensitivity to outliers.
# The total number of oral ulcers were also counted at each in-person visit, and the daily average number of oral ulcers were calculated during the treatment period.
# The average day zero pain score for each treatment group was normalized to 100%. Then for each treatment group averages were plotted for succeeding days as a percentage of the first day's pain score average.
# [2] = Adverse events in the randomized, open-label clinical study; conditions: adverse event
# Protocol: as §1, §2
# All adverse events were reviewed in real time by the treating physician investigator.
# [3] = cited from earlier work
# [4] = day 2 of treatment, PTX+CLC n = 18, CLC n = 21
# [5] = interpreted as dermal manifestations of BD
Structure (SMILES),"Day 2 Growth/Shrinkage - Patients with Index Ulcer Growth, % [1, 4]","Day 2 Growth/Shrinkage - Patients with Index Ulcer Growth, Number [1, 4]","Day 2 Growth/Shrinkage - Patients with Index Ulcer Shrinkage, % [1, 4]","Day 2 Growth/Shrinkage - Patients with Index Ulcer Shrinkage, Number [1, 4]","Day 4 Clearance - Patients with Remaining Ulcers, % ([1]; day 4, PTX+CLC n = 18, CLC n = 21)","Day 4 Clearance - Patients with Undetectable Ulcers, % ([1]; day 4, undetectable = ulcer area of less than 1 mm^2, PTX+CLC n = 18, CLC n = 21)","mean index ulcer area by treatment group (trend) ([1]; over 14 days, FIG. 1)",daily average number of oral ulcers during the treatment phase ([1]; two weeks of treatment),"Dysgeusia, % of patients [2]","Dysgeusia, number of patients [2]","Nausea, % of patients [2]","Nausea, number of patients [2]","Vomiting, number of patients [2]","limited dermal rashes, % of patients [2, 5]","limited dermal rashes, number of patients [2, 5]",plasma levels of metabolite relative to PTX [3]
"COc1cc2c(c(OC)c1OC)-c1ccc(OC)c(=O)cc1[C@@H](NC(C)=O)CC2 [CLC, colchicine]",80%,16,19%,4,71%,29%,first growing then slowly decreasing,1.89+/−1.36,0%,0,10%,2,none,29%,6,–
"CC(O)CCCCn1c(=O)c2c(ncn2C)n(C)c1=O (centres unmarked) [Metabolite 1, 1-[5-hydroxyhexyl]-3,7-dimethylxanthine]",–,–,–,–,–,–,–,–,–,–,–,–,–,–,–,five
"Cn1cnc2c1c(=O)n(CCCC(=O)O)c(=O)n2C [Metabolite V, 1-[3-carboxypropyl]-3,7-dimethylxanthine]",–,–,–,–,–,–,–,–,–,–,–,–,–,–,–,eight
